# Assay results from patent publication US9834558B2, “Substituted bridged urea analogs as sirtuin modulators” (GLAXOSMITHKLINE LLC, priority 2013, dated 2017).
# Read-outs that look alike come from different tables or passages of the source.
# Target: T1, SIRT1 (Homo sapiens, UniProt Q96EB6)
# T1 sequence (Q96EB6 1-747): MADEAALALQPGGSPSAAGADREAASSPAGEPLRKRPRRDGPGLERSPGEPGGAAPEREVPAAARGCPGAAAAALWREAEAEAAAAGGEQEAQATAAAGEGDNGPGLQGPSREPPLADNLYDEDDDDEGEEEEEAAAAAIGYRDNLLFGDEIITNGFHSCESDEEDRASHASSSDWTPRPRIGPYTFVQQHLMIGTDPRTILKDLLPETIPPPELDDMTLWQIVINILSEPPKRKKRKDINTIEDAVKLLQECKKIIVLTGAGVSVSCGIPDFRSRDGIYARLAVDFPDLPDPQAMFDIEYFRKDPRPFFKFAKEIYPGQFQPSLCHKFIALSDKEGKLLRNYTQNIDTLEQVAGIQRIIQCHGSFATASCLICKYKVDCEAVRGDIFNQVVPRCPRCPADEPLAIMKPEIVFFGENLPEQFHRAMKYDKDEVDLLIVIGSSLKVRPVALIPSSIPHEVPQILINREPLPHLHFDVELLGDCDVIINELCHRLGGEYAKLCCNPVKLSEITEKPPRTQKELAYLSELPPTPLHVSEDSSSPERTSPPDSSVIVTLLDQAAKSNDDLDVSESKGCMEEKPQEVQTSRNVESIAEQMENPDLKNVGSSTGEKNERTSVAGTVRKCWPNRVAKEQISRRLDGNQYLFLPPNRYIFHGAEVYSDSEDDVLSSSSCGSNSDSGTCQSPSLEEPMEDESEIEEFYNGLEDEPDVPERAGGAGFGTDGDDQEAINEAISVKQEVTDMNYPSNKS
# Test: Trp mass spectrometry assay of SIRT1 activation
# Assay type: biochemical
# Conditions: for TRP Activity (EC1.5): EC1.5 = concentration that results in 150% activation of SIRT1
# Text: Mass spectrometry based assays were used to identify modulators of SIRT1 activity. […] The peptide was labeled with the fluorophore STMR (excitation 540 nm/emission 580 nm) at the C-terminus. The sequence of the peptide substrate was based on p53 with several modifications. In addition, the methionine residue naturally present in the sequence was replaced with the norleucine because the methionine may be susceptible to oxidation during synthesis and purification. The Trp based assay utilized a peptide having an amino acid residues as follows: Ac-R-H-K-K(Ac)-W-NH2 (SEQ ID NO: 2).
# The Trp mass spectrometry assay was conducted as follows. 0.5 μM peptide substrate and 120 μM βNAD^+ were incubated with 10 nM SIRT1 for 25 minutes at 25° C. in a reaction buffer (50 mM HEPES pH 7.5, […], 1 mM DTT, 0.05% BSA). The SIRT1 protein was obtained by cloning the SirT1 gene into a T7-promoter containing vector, which was then expressed in BL21(DE3) bacterial cells and purified as described in further detail below. Test compound was added at varying concentrations to this reaction mixture and the resulting reactions were monitored. After the 25 minute incubation with SIRT1, 10 μL of 10% formic acid was added to stop the reaction. The resulting reactions were sealed and frozen for later mass spec analysis. The relative SIRT1 activity was then determined by measuring the amount of O-acetyl-ADP-ribose (OAADPR) formed (or, alternatively, the amount of deacetylated Trp peptide generated) by the NAD-dependent sirtuin deacetylation reaction in the presence of varying concentrations of the test compound versus control reactions lacking the test compound. The degree to which the test agent activated deacetylation by SIRT1 was expressed as EC1.5 (i.e., the concentration of compound required to increase SIRT1 activity by 50% over the control lacking test compound), and Percent Maximum Activation (i.e., the maximum activity relative to control (100%) obtained for the test compound).
# This time point was the same as that used for test compounds and, within the linear range, the endpoint represents a change in velocity.
# For the above assay, SIRT1 protein was expressed and purified as follows. The SirT1 gene was cloned into a T7-promoter containing vector and transformed into BL21(DE3). The protein was expressed by induction with 1 mM IPTG as an N-terminal His-tag fusion protein at 18° C. overnight and harvested at 30,000×g. Cells were lysed with lysozyme in lysis buffer (50 mM Tris-HCl, 2 mM Tris[2-carboxyethyl]phosphine (TCEP), 10 μM ZnCl2, 200 mM NaCl) and further treated with sonication for 10 min for complete lysis. The protein was purified over a Ni-NTA column (Amersham) and fractions containing pure protein were pooled, concentrated and run over a sizing column (Sephadex S200 26/60 global). The peak containing soluble protein was collected and run on an Ion-exchange column (MonoQ). Gradient elution (200 mM-500 mM NaCl) yielded pure protein. This protein was concentrated and dialyzed against dialysis buffer (20 mM Tris-HCl, 2 mM TCEP) overnight. The protein was aliquoted and frozen at −80° C. until further use.
# “NT” means not tested; “ND” means not determinable.
# [1] = concentration giving 150% activation of SIRT1, Trp peptide substrate
# [2] = Trp peptide assay, maximum activity relative to control (100%), read-out: TRP MAX RESP (percent maximum fold activation)
# [3] = Trp peptide substrate, concentration giving 150% activation of SIRT1
# [4] = Trp mass spectrometry assay, EC1.5 = concentration of test compound that results in 150% activation of SIRT1
# [5] = Trp mass spectrometry assay, concentration of test compound giving 150% activation of SIRT1
smiles,measurement,setting,value
O=C(Nc1cccnn1)N1c2nc(-c3cncc(C(F)(F)F)c3)ccc2N2C[C@@H](O)[C@H]1C2 [Example 701],Tryp AVG EC1.5 (μM),[1],B (B (EC1.5 1-25 μM))
"Cc1cc(-c2ccc3c(n2)N(C(=O)Nc2cn(C)nn2)[C@H]2CCN3C2)ccn1 [(9S)-N-(1-methyl-1H-1,2,3-triazol-4-yl)-5-(2-methylpyridin-4-yl)-1,6,8-triazatricyclo[7.2.1.0^{2,7}]dodeca-2(7),3,5-triene-8-carboxamide]",TRP Activity (EC1.5),Trp peptide assay,B (B (EC1.5 1-25 μM))
same,Emax,[2],> 150%
CC(C)(C)OC(=O)NCC#Cc1ccc(NC(=O)N2c3nc(-c4cccc(C(F)(F)F)c4)ccc3N3CC[C@H]2C3)cc1-c1cnco1 [Example 751],Tryp AVG EC1.5 (μM),[1],A (A (EC1.5<1 μM))
COc1cc(NC(=O)N2c3nc(-c4cccc(Cl)c4)ccc3N3CC[C@H]2C3)nc(OC)n1 [Example 103],Tryp AVG EC1.5 (μM),[3],B (B (EC1.5 1-25 μM))
O=C(Nc1ccncn1)N1c2nc(-c3cccnc3)ccc2N2CCC[C@H]1C2 [Example 456],Tryp AVG EC1.5 (μM),[4],B (B (EC1.5 1-25 μM))
O=C(Nc1ccc(-n2cncn2)cc1)N1c2nc(-c3cncc(C(F)(F)F)c3)ccc2N2CC[C@H]1C2 [Example 580],Tryp AVG EC1.5 (μM),[4],A (A (EC1.5<1 μM))
same,Emax,"Trp mass spectrometry assay, percent maximum fold activation of SIRT1, read-out: Tryp % Fold Act",> 150%
"Cc1cc(-c2ccc3c(n2)N(C(=O)Nc2cnccn2)[C@H]2CCN3C2)cnc1C#N [(9S)-5-(6-cyano-5-methylpyridin-3-yl)-N-(pyrazin-2-yl)-1,6,8-triazatricyclo[7.2.1.0 {2,7}]dodeca-2(7),3,5-triene-8-carboxamide]",TRP Activity (EC1.5),Trp peptide assay,B (B (EC1.5 1-25 μM))
same,Emax,[2],> 150%
"Cc1ccnc(NC(=O)N2c3nc(-c4ccnc(C)c4)ccc3N3CC[C@H]2C3)c1 [(9S)-N-(4-methylpyridin-2-yl)-5-(2-methylpyridin-4-yl)-1,6,8-triazatricyclo[7.2.1.0^2,7]dodeca-2,4,6-triene-8-carboxamide]",TRP Activity (EC1.5),Trp peptide assay,B (B (EC1.5 1-25 μM))
same,Emax,[2],> 150%
CC(=O)N1CCC(c2cccc(NC(=O)N3c4nc(-c5cccc(C(F)(F)F)c5)ccc4N4CC[C@H]3C4)c2)C1 (stereo partly drawn) [Example 635],Tryp AVG EC1.5 (μM),[1],A (A (EC1.5<1 μM))
COc1cc(NC(=O)N2c3nc(-c4cccc(CC(O)CO)c4)ccc3N3CC[C@H]2C3)ncn1 (stereo partly drawn) [Example 355],Tryp AVG EC1.5 (μM),[5],B (B (EC1.5 1-25 μM))
O=C(Nc1cccc(-c2cnco2)n1)N1c2nc(-c3cncc(F)c3)ccc2N2CC[C@H]1C2 [Example 739],Tryp AVG EC1.5 (μM),[1],A (A (EC1.5<1 μM))
Cc1nn(C)c(C)c1-c1ccc2c(n1)N(C(=O)Nc1cccnc1)[C@H]1CCN2C1 [Example 486],Tryp AVG EC1.5 (μM),[4],C (C (EC1.5>25 μM))
"O=C(Nc1cnccn1)N1c2nc(-c3ccn[nH]3)ccc2N2CC[C@H]1C2 [(9S)-N-(pyrazin-2-yl)-5-(1H-pyrazol-5-yl)-1,6,8-triazatricyclo[7.2.1.0 {2,7}]dodeca-2(7),3,5-triene-8-carboxamide]",TRP Activity (EC1.5),Trp peptide assay,B (B (EC1.5 1-25 μM))
same,Emax,[2],> 150%
N#Cc1cc(-c2ccc3c(n2)N(C(=O)Nc2ccccn2)[C@H]2CCN3C2)ccc1F [Example 341],Tryp AVG EC1.5 (μM),[5],A (A (EC1.5<1 μM))
CC(=O)NCc1ccc(NC(=O)N2c3nc(-c4cccc(C(F)(F)F)c4)ccc3N3CCC[C@H]2C3)cc1 [Example 790],Tryp AVG EC1.5 (μM),[1],A (A (EC1.5<1 μM))
Cc1nc(NC(=O)N2c3nc(-c4ccccc4C#N)ccc3N3CCC[C@H]2C3)sc1C [Example 476],Tryp AVG EC1.5 (μM),[4],B (B (EC1.5 1-25 μM))
Cc1cncc(NC(=O)N2c3nc(-c4cncc(C(F)(F)F)c4)ccc3N3C[C@@H](O)[C@H]2C3)c1 [Example 690],Tryp AVG EC1.5 (μM),[1],B (B (EC1.5 1-25 μM))
"O=C(NC(CO)C(F)(F)F)c1ccc2c(n1)N(C(=O)Nc1ccccn1)[C@H]1CCN2C1 (stereo partly drawn) [(9S)-8-N-(pyridin-2-yl)-5-N-(1,1,1-trifluoro-3-hydroxypropan-2-yl)-1,6,8-triazatricyclo[7.2.1.0^{2,7}]dodeca-2(7),3,5-triene-5,8-dicarboxamide]",TRP Activity (EC1.5),Trp peptide assay,A (A (EC1.5<1 μM))
same,Emax,[2],> 150%
"Cc1cc(-c2ccc3c(n2)N(C(=O)NCc2cccnc2)[C@H]2CCN3C2)ccn1 [(9S)-5-(2-methylpyridin-4-yl)-N-(pyridin-3-ylmethyl)-1,6,8-triazatricyclo[7.2.1.0 {2,7}]dodeca-2(7),3,5-triene-8-carboxamide]",TRP Activity (EC1.5),Trp peptide assay,B (B (EC1.5 1-25 μM))
same,Emax,[2],> 150%
O=C(Nc1ccccn1)N1c2nc(-c3ccnc(N4CCC(C(F)(F)F)C4)c3)ccc2N2CC[C@H]1C2 (stereo partly drawn) [Example 367],Tryp AVG EC1.5 (μM),[5],A (A (EC1.5<1 μM))
Cc1cncc(-c2ccc3c(n2)N(C(=O)Nc2nc(C)c(C)s2)[C@H]2CCCN3C2)c1 [Example 507],Tryp AVG EC1.5 (μM),[4],A (A (EC1.5<1 μM))
O=C(Nc1cnccn1)N1c2nc(-c3cncc(F)c3)ccc2N2CCC[C@H]1C2 [Example 432],Tryp AVG EC1.5 (μM),[4],B (B (EC1.5 1-25 μM))
O=C(Nc1ccccn1)N1c2nc(-c3cc(F)cc(F)c3)ccc2N2CC[C@H]1C2 [Example 344],Tryp AVG EC1.5 (μM),[5],A (A (EC1.5<1 μM))
Cn1ncc2cc(NC(=O)N3c4nc(-c5cccc(C(F)(F)F)c5)ccc4N4CC[C@H]3C4)ccc21 [Example 87],Tryp AVG EC1.5 (μM),[3],A (A (EC1.5<1 μM))
Cc1noc(C)c1-c1cccc(NC(=O)N2c3nc(-c4cccc(C(F)(F)F)c4)ccc3N3CC[C@H]2C3)n1 [Example 657],Tryp AVG EC1.5 (μM),[1],A (A (EC1.5<1 μM))
O=C(Nc1cccc(-c2ccccn2)c1)N1c2nc(-c3cccc(C(F)(F)F)c3)ccc2N2CC[C@H]1C2 [Example 667],Tryp AVG EC1.5 (μM),[1],A (A (EC1.5<1 μM))
Cc1cc(-c2ccc3c(n2)N(C(=O)Nc2nc(C)c(C)s2)[C@H]2CCN3C2)ccn1 [Example 481],Tryp AVG EC1.5 (μM),[4],A (A (EC1.5<1 μM))
"Cn1cc(-c2ccc3c(n2)N(C(=O)Nc2cccnc2)[C@H]2CCN3C2)ccc1=O [(9S)-5-(1-methyl-6-oxo-1,6-dihydropyridin-3-yl)-N-(pyridin-3-yl)-1,6,8-triazatricyclo[7.2.1.0^2,7]dodeca-2(7),3,5-triene-8-carboxamide]",TRP Activity (EC1.5),Trp peptide assay,B (B (EC1.5 1-25 μM))
same,Emax,[2],> 150%
O=C(Nc1cccc(OC[C@H](O)CO)n1)N1c2nc(-c3cccc(C(F)(F)F)c3)ccc2N2CC[C@H]1C2 [Example 819],Tryp AVG EC1.5 (μM),[1],A (A (EC1.5<1 μM))
"CC(C)c1cc(-c2ccc3c(n2)N(C(=O)Nc2cnccn2)[C@H]2CCN3C2)ccn1 [(9S)-5-[2-(propan-2-yl)pyridin-4-yl]-N-(pyrazin-2-yl)-1,6,8-triazatricyclo[7.2.1.0 {2,7}]dodeca-2,4,6-triene-8-carboxamide]",TRP Activity (EC1.5),Trp peptide assay,A (A (EC1.5<1 μM))
same,Emax,[2],> 150%
